The results in this text go back to patent US20240325394A1, “SALT AND CRYSTAL FORM OF NITROGEN-CONTAINING HETEROCYCLIC DERIVATIVE, PREPARATION METHOD THEREFOR AND APPLICATION THEREOF” (SHANGHAI HANSOH BIOMEDICAL CO., LTD., priority 2020, published 2024).

Like-named read-outs stand apart in the source and are kept apart here.

Data set [1] relates to NCI-H358 cells (KRAS G12C mutant). The data set can be described thus: Inhibition of NCI-H358 cell proliferation (CellTiter-Glo, 72 h). The format is cell-based, human. The procedure: (§1) When NCI-H358 or Mia PaCa-2 cells were cultured to the appropriate fusion level, the NCI-H358 or Mia PaCa-2 cells were collected, and the cells were adjusted to the appropriate cell concentration using a complete medium, and the cell suspension was spread in a 96-well plate, 90 μL per well, and placed in a 37° C., 5% CO2 incubator overnight; and compound solutions of different concentrations were prepared using DMSO and culture medium; and a solvent control was set, the compound solution was added to a 96-well plate, 10 μL per well, at 37° C. in a 5% CO2 incubator for 72 hours; CellTiter-Glo solution was added thereto and the mixture was mixed well by shaking, incubated for 10 min in the dark, and read by BioTek Synergy H1 microplate reader.
(§2) The luminescence signal values were used to calculate the inhibition rate, the concentration and the inhibition rate were fitted to a nonlinear regression curve using Graphpad Prism software, then the IC50 value was obtained.
A general note: In ATP-based viability assays light output follows the ATP content of the culture.

Data set [2] relates to Mia PaCa-2 cells (KRAS G12C mutant). Description: Inhibition of Mia PaCa-2 cell proliferation (CellTiter-Glo, 72 h). The format is cell-based, human. The procedure: as §1, §2
The next data set has as its target T1, human KRAS G12C protein (Homo sapiens, UniProt P01116, G12C).
T1 construct: purchased Beijing SinoBiological Co., Ltd. 12259-H07E2
The data set can be described thus: Thermal shift: melting temperature of KRAS G12C protein. The data set is classed as binding. To be noted: for Tm: KRAS G12C protein 5.37 μM with compound 10 μM, 1 hour; for ΔTm at 10 µM: Tm minus Tm of DMSO solvent control, compound 10 μM. The procedure: In this experiment, the thermal shift method was used to test the degree of change in the melting temperature (Tm) of the KRAS G12C protein before and after the binding of the compound, in order to characterize the ability of the compound to improve the stability of the KRAS G12C protein.
The specific experiment operation was as follows: • A solution containing […] (pH 7.5), 1 mM DTT, 5× SYPRO Orange and 150 mM NaCl was prepared as the experimental buffer, and a final concentration of 5.37 μM human KRAS G12C protein was added thereto. The reaction mixture was divided into 8 rows of PCR tubes, each 19.5 μL, and 0.5 μL of the test compound or DMSO were added respectively, so that the total reaction system was 20 μL, the final concentration of the compound was 10 μM, and 2.5% DMSO was set as the solvent control. After incubating at room temperature in the dark for 1 hour, the PCR tube was put into the PCR instrument, QuantStudio Software v1.3 was opened, and the melting temperature of KRAS G12C protein in different treatment groups was detected by melt curve function (heating from 25° C. to 95° C., 0.03° C./s).
The experimental data file of PCR instrument was imported into thermal shift software, and the melting temperature (Tm) of each treatment group was obtained, and the change value of melting temperature (ATm) was obtained by subtracting the Tm of DMSO solvent control group.

Data set [3] is described as follows: Pharmacokinetics in MiaPaca 2 tumor-bearing mice (plasma, tumor tissue). The data set is classed as in vivo. The conditions noted are these: female, mouse, po, p.o. 6 mg/kg. Here is the method:
The pharmacokinetic behavior of the compound of the embodiment 13-1 and AMG-510 compound, administered orally at a dose of 6 mg/kg, in mice (plasma, tumor tissue and intestine) was studied using MiaPaca 2 tumor-bearing mice as test animals.
24 MiaPaca 2 tumor-bearing mice, females. 3 for each time point (0 h, 1 h, 2 h, 4 h, 6 h, 8 h, 16 h, 24 h). Shanghai xipuer-bikai Laboratory Animal Co., Ltd, Animal Production License No. (SCXK (Shanghai) 2018-0006.
Embodiment compound 13-1 and compound AMG-510 were weighed and dissolved in the solution, the mixture was shaken well, and ultrasound was performed for 15 minutes to obtain a uniform suspension with a concentration of 0.6 mg/mL.
MiaPaca 2 tumor-bearing mice were administered at a dose of 6 mg/kg in a volume of 10 mL/kg, respectively, based on body weight p.o. after fasting (animals were not administered at point 0 h).
Before and after administration, mice were sacrificed with CO2, 0.5 mL blood was collected from the heart and placed in EDTA-2K tube, centrifuged at 4° C. […] The duodenum, ileum and colon tissues were cut with scissors, the contents were removed and cleaned twice with PBS, after absorbing water with absorbent paper, they were weighed, placed in a 2 mL centrifuge tube and stored at −80° C.

The nature of data set [4]: Plasma stability, mouse plasma. The data set is classed as in vitro ADME. The procedure: (§3) Animal or human whole blood was collected, then the blood was put into a test tube containing anticoagulant, centrifuged at 3500 rpm for 10 min, and the upper layer of pale yellow plasma was collected. • 2) 10 μM of tested compound (m/M/V=C)
(§4) The compound was weighed, the stock solution was prepared with DMSO and the working solution was prepared with 100 mM phosphate buffer. • 3) 10 μM of positive control • (1) Propantheline (Propantheline Mr=449.4 Da)
(§5) • 1) 285 μL of plasma and 15 μL of 10 μM compound (tested compound) were added in turn in a 96-well plate, and incubated at 37° C. • 2) 40 μL was taken out at 0, 15, 30, 60, 90, 120 min, respectively, and 160 μL of acetonitrile termination solution containing internal standard was added. • 3) After centrifugation (3500 rpm, 10 min), 50 μL of supernatant was taken out, and then diluted with 50 μL DDH2O and injected to LC-MS/MS.
(§6) • instrument: Shimadzu LC-20 AD • chromatographic column: phenomenex Gemiu® C18 (50*4.6 mm, 5 μM particle size); • mobile phase: A: acetonitrile, B: 0.1% formic acid solution 0-8 min: 5% A→95% A, 2.0-2.1 min: 90% A→5% A; flow rate: 0.8 mL/min; running time: 5.0 min; injection volume: 5 μL.
(§7) • instrument: API4000 Liquid Chromatography-Mass Spectrometry, AB, USA; • the ion source was electrospray ionization source (ESI); • the temperature of dry gas (N2) was 500° C.; • electrospray voltage was 5500V; • the detection method was positive ion detection; • the scanning mode was selective response monitoring (MRM); • the scanning time was 0.1 s.

Data set [5] in a line: Plasma stability, human plasma. To be noted: human. The data set is classed as in vitro ADME. Here is the method:
as §3, §4, §5, §6, §7

A short description of data set [6]: Plasma stability, rat plasma. The data set is classed as in vitro ADME. Here is the method:
as §3, §4, §5, §6, §7

Data set [7] in a line: Plasma stability, dog plasma. The data set is classed as in vitro ADME. The procedure: as §3, §4, §5, §6, §7

A word on the IC50: it is the concentration needed to halve the response being measured. Take `C=CC(=O)N1CCN(c2nc(=O)n(-c3c(SC)ccnc3C(C)C)c3nc(-c4c(F)cccc4F)c(Cl)cc23)[C@@H](C)C1` [Embodiment 12, (S)-4-(4-acryloyl-2-methylpiperazin-1-yl)-7-(2,6-difluorophenyl)-6-chloro-1-(2-isopropyl-4-(methylthio)pyridin-3-yl)pyrido[2,3-d]pyrimidin-2(1H)-one]: the concentration for half-maximal inhibition (IC50) is 79 nM in data set [1] (Homo sapiens, NCI-H358, 72 h) and 68 nM in data set [2] (Homo sapiens, MIA PaCa-2, 72 h).

One may read the Tm as the temperature at the midpoint of the melting transition. In general, ΔTm refers to the change in melting temperature against a reference sample. On to `C=CC(=O)N1CCN(c2nc(=O)n(-c3c(SC)ccnc3C(C)C)c3nc(-c4c(F)cccc4SC)c(F)cc23)[C@@H](C)C1` [Embodiment 4, 4-((S)-4-Acryloyl-2-methylpiperazin-1-yl)-6-fluoro-7-(2-fluoro-6-(methylthio)phenyl)-1-(2-isopropyl-4-(methylthio)pyridin-3-yl)pyrido[2,3-d]pyrimidin-2(1H)-one], for which the half-inhibitory concentration (IC50) in data set [1] (Homo sapiens, NCI-H358, 72 h) was found to be 48 nM. For the same molecule, on human KRAS G12C protein, the Tm worked out at 61.2 °C and the thermal shift (ΔTm) at 10 µM came to 11.7 °C. In addition, the IC50 in data set [2] (Homo sapiens, MIA PaCa-2, 72 h) is 47 nM.

As usually defined, the MRT is a mean duration of stay, worked out from the concentration-time curve. Broadly, the half-life is how long it takes for the measured level to halve. High values mean slow loss, low ones fast loss. For `C=CC(=O)N1CCN(c2nc(=O)n(-c3c(C)ccnc3C(C)C)c3nc(-c4c(O)cccc4F)c(F)cc23)[C@@H](C)C1` [AMG 510, reference compound], the mean residence time MRT is 0.8 h in data set [3] (Plasma) and 0.7 h in data set [3] (Tumor). Moreover, the half-life in data set [3] (Plasma) and in data set [3] (Tumor) was 0.3 h in each case. For the same molecule, the Kp in data set [3] (exposure in tumor to exposure in plasma, read-out: Ratio (T/P)) came to 0.42. Besides, the “Residual rate (%) 0 min” value came out at 100.00% in data set [4] (mouse plasma, 37° C., 0 min); 100.00% in data set [5] (0 min, 0.5 μM); 100.00% in data set [6] (rat plasma, 37° C., 0 min); 100.00% in data set [7] (dog plasma, 37° C., 0 min). In addition, the “Residual rate (%) 15 min” value in data set [4] (mouse plasma, 37° C., 15 min) is 97.50%; in data set [5] (15 min, 0.5 μM), 93.77%; in data set [6] (rat plasma, 37° C., 15 min), 100.85%; in data set [7] (dog plasma, 37° C., 15 min), 98.88%. Moreover, the “Residual rate (%) 30 min” value in data set [4] (mouse plasma, 37° C., 30 min) amounted to 82.58%; in data set [5] (30 min, 0.5 μM) it was 85.72%; in data set [6] (rat plasma, 37° C., 30 min) it was 93.03%; in data set [7] (dog plasma, 37° C., 30 min) it was 101.14%. Further, the “Residual rate (%) 60 min” value in data set [4] (mouse plasma, 37° C., 60 min) is 81.82%; in data set [5] (60 min, 0.5 μM), 82.51%; in data set [6] (rat plasma, 37° C., 60 min), 77.54%; in data set [7] (dog plasma, 37° C., 60 min), 93.43%. The “Residual rate (%) 120 min” value worked out at 63.23% in data set [4] (mouse plasma, 37° C., 120 min); 64.44% in data set [5] (120 min, 0.5 μM); 56.77% in data set [6] (rat plasma, 37° C., 120 min); 91.92% in data set [7] (dog plasma, 37° C., 120 min). Also, the half-life at 0.5 μM in data set [4] (mouse, plasma) was determined as 3.08 h; in data set [5] (plasma) it was 3.31 h; in data set [6] (rat, plasma), 2.29 h; in data set [7] (dog, plasma), 14.7 h.

Regarding `C=CC(=O)N1CCN(c2nc(=O)n(-c3c(SC)ccnc3C(C)C)c3nc(-c4c(O)cccc4F)c(Cl)cc23)[C@@H](C)C1` [Embodiment 3, 4-((S)-4-Acryloyl-2-methylpiperazin-1-yl)-6-chloro-7-(2-fluoro-6-hydroxyphenyl)-1-(2-isopropyl-4-(methylthio)pyridin-3-yl)pyrido[2,3-d]pyrimidin-2(1H)-one], the IC50 in data set [1] (Homo sapiens, NCI-H358, 72 h) turned out to be 14 nM. In addition, on human KRAS G12C protein, the Tm was found to be 61.5 °C and the shift in melting temperature (ΔTm) at 10 µM was found to be 10.9 °C. Besides, the IC50 in data set [2] (Homo sapiens, MIA PaCa-2, 72 h) stood at 41 nM.

As to `C=CC(=O)N1CCN(c2nc(=O)n(-c3c(SC)ccnc3C(C)C)c3nc(-c4c(O)cccc4F)c(F)cc23)[C@@H](C)C1` [Embodiment 1-1, P-4-((S)-4-acryloyl-2-methylpiperazin-1-yl)-6-fluoro-7-(2-fluoro-6-hydroxyphenyl)-1-(2-isopropyl-4-(methylthio)pyridin-3-yl)pyrido[2,3-d]pyrimidin-2(1H)-one], the IC50 was determined as 28 nM in data set [1] and 55 nM in data set [2].
